This note sets out measurements from patent US10364263B2, “Cyclic phosphates and cyclic phosphoramidates for the treatment of neurologic disorders” (Retrophin, Inc., priority 2015, dated 2019).

A short description of data set [1]: Stability in human plasma. Format: in vitro ADME. As to conditions: 37° C. The essentials:
(§1)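 Test compound at 3 μM (0.1% DMSO) was incubated in mouse or human plasma at 37 °C and sampled in duplicate at 0, 10, 20, 30, 40 and 60 min. Reactions were stopped with acetonitrile/formic acid containing internal standard. Remaining parent was measured by UPLC-MS/MS without a calibration curve.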

In data set [2] the test system is PANK2 silenced human neuroblastoma IMR32 cells (PANK2−/−). The data set is described as follows: Coenzyme A assay in PANK2 silenced cells (LC-MS quantification of free CoA). It is filed as cell-based. Conditions: compound added twice (24 h + 24 h), relative to 0.1% DMSO controls. The essentials:
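Free intracellular CoA was measured by positive-mode LC-MS/MS of 20% TFA extracts, taking 2 μl per 10^6 cells as intracellular volume. Cells were IMR32 with stable lentiviral PANK2 knockdown, dosed twice 24 h apart (48 h total, 0.1% DMSO). Output is fold increase over vehicle.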

Data set [3] can be described thus: Stability in mouse plasma. It is filed as in vitro ADME. As to conditions: for t1/2, Mouse Plasma, Diastereoisomer B: 3 µM. Summed up: as §1
[4] abbreviates: human, plasma, Diastereoisomer A (upfield shift in 31P NMR), read-out: t1/2, Human Plasma, Diastereoisomer A (converted).
The mark [5] stands for this setting: human, plasma, Diastereoisomer B, read-out: t1/2, Human Plasma, Diastereoisomer B (converted).

Molecules are shown by their SMILES.

For `COC(=O)CCNC(=O)[C@@H]1OP(=O)(NCCN2CCCC2)OCC1(C)C` (stereo partly drawn) [compound 109, methyl 3-((4R)-5,5-dimethyl-2-oxido-2-((2-(pyrrolidin-1-yl)ethyl)amino)-1,3,2-dioxaphosphinane-4-carboxamido)propanoate], the half-life at 3 µM in data set [1] (Diastereoisomer A (upfield shift in 31P NMR), read-out: t1/2, Human Plasma, Diastereoisomer A (converted)) was greater than 60 min; in data set [3] (Diastereoisomer A (upfield shift in 31P NMR), 3 μM, 37° C., mouse plasma, read-out: t1/2, Mouse Plasma, Diastereoisomer A) it was less than 9.6 min. In addition, the “PANK2−/− CoA (Fold Increase): fold increase in Coenzyme A (CoA) levels relative to controls” value in data set [2] is on record as 1.87 Fold Increase.

Regarding `COC(=O)CCNC(=O)[C@@H]1OP(=O)(NCCC(=O)OCc2ccccc2)OCC1(C)C` (stereo partly drawn) [compound 117, benzyl 3-(((4R)-4-((3-methoxy-3-oxopropyl)carbamoyl)-5,5-dimethyl-2-oxido-1,3,2-dioxaphosphinan-2-yl)amino)propanoate], the half-life at 3 µM in data set [1] (setting [4]) was greater than 60 min; in data set [1] (setting [5]), greater than 60 min; in data set [3] (mouse, plasma), less than 9.6 min. For the same molecule, the “PANK2−/− CoA (Fold Increase): fold increase in Coenzyme A (CoA) levels relative to controls” value in data set [2] is 1.06 Fold Increase. The “t1/2, Mouse Plasma, Diastereoisomer B” value in data set [3] (mouse, plasma) is less than 9.6 min.

Turning to `COC(=O)CCNC(=O)[C@@H]1OP(=O)(OCOC(=O)OC(C)C)OCC1(C)C` (stereo partly drawn) [Compound No. 69, Methyl 3-((4R)-2-(((isopropoxycarbonyl)oxy)methoxy)-5,5-dimethyl-2-oxido-1,3,2-dioxaphosphinane-4-carboxamido)propanoate], the half-life at 3 µM in data set [1] (setting [4]) is greater than 60 min; in data set [1] (setting [5]) it was less than 9.6 min; in data set [3] (mouse, plasma), less than 9.6 min. Further, the “PANK2−/− CoA (Fold Increase): fold increase in Coenzyme A (CoA) levels relative to controls” value in data set [2] amounted to 181.1 Fold Increase. For the same molecule, in data set [3] (mouse, plasma), the “t1/2, Mouse Plasma, Diastereoisomer B” value was less than 9.6 min.

For `CCc1cc(C(=O)OCOP2(=O)OCC(C)(C)[C@H](C(=O)NCCC(=O)OC)O2)n(C)n1` (stereo partly drawn) [Compound No. 84, (((4R)-4-((3-methoxy-3-oxopropyl)carbamoyl)-5,5-dimethyl-2-oxido-1,3,2-dioxaphosphinan-2-yl)oxy)methyl 3-ethyl-1-methyl-1H-pyrazole-5-carboxylate], the half-life at 3 µM is greater than 60 min in data set [1] (setting [4]); 57.6 min in data set [1] (setting [5]); less than 9.6 min in data set [3] (mouse, plasma). For the same molecule, the “PANK2−/− CoA (Fold Increase): fold increase in Coenzyme A (CoA) levels relative to controls” value in data set [2] is on record as 325.47 Fold Increase. In addition, the “t1/2, Mouse Plasma, Diastereoisomer B” value in data set [3] (mouse, plasma) was less than 9.6 min.
